Experimental data as given in patent US20180086810A1, “T CELL RECEPTOR FUSIONS AND CONJUGATES AND METHODS OF USE THEREOF” (ALTOR BIOSCIENCE CORPORATION, priority 2000, published 2018).

Experiments:
HLA-A2 = target: T1, HLA-A2 (Homo sapiens, UniProt P04439, D140Y/D185E/D98H/E176V/E277Q/G131W/G231S/I119V/I121R/I166T/I218V/L300P/L318F/N151K/N90K/P208A/P217A/Q86G/Q94H/R138H/R169H/T345S); assay: HLA-A2 loading of peptide on T2 cells, staining with HLA-A2 specific mAb BB7.2; assay type: cell-based; details: T2 cells pulsed with 50 μg peptide overnight; BB7.2 staining
T1 construct: HLA-A2 surface expression on T2 cells; endogenous in cells; host or cells: T2 cells
Description: (§1) Flow cytometry and immunofluoresence staining were used to show direct binding of the fusion protein via its TCR to peptide/HLA-A2 complexes on the surface of the human B lymphoid cell line T2 (FIG. 4) • A) Staining of 149 or 264 peptide pulsed T2 cells with 0.5 μg (10 μg/ml) of 264 scTCR-IL-2 fusion protein. […] To evaluate A2 loading of each peptide, the cells were stained with the HLA-A2 specific mAb BB7.2 […] after overnight incubation of the cells with peptide.

[1] = tested on: CTLL-2 cells and 264 peptide-loaded T2 cells; assay: Cell-cell conjugation assay, CTLL-2 cells with 264 peptide-loaded T2 cells, flow cytometer; assay type: cell-based, murine CTLL-2, human T2
Description: (§2) In this experiment, T2 cells pulsed with either the 149 or 264 peptide. CTLL-2 cells were hydrodiethidium (HE) labeled and incubated for 20 minutes at RT with an equal number of calcein-AM labeled T2 cells pulsed with either 50 μg of 149 or 264 peptide. […] In contrast, conjugate formation was not observed with the mixture that included the 149 peptide pulsed T2 cells (B; 0.88%). Cell samples were washed one time before analysis on the flow cytometer.

[2] = tested on: CTLL-2 cells and 149 peptide pulsed T2 cells; assay: Cell-cell conjugation assay, CTLL-2 cells with 149 peptide pulsed T2 cells, flow cytometer; assay type: cell-based, murine CTLL-2, human T2; details: fusion protein; HE-labeled CTLL-2 and calcein-AM labeled T2 pulsed with 50 μg 149 peptide; 20 minutes at RT
Description: as §2

[3] = target: 264 peptide/HLA-A2 complexes on the surface of the human B lymphoid cell line T2 (Homo sapiens, UniProt P04439+P04637, D140Y/D185E/D98H/E176V/E277Q/G131W/G231S/I119V/I121R/I166T/I218V/L300P/L318F/N151K/N90K/P208A/P217A/Q86G/Q94H/R138H/R169H/T345S); assay: Flow cytometry / immunofluorescence staining of peptide-pulsed T2 cells with fusion protein (264 peptide); assay type: binding; details: 0.5 μg (10 μg/ml) fusion protein; T2 cells pulsed with 264 peptide
Description: as §1

[4] = target: T2, 149 peptide/HLA-A2 complexes on the surface of the human B lymphoid cell line T2 (Homo sapiens, UniProt P04439+P04637, D140Y/D185E/D98H/E176V/E277Q/G131W/G231S/I119V/I121R/I166T/I218V/L300P/L318F/N151K/N90K/P208A/P217A/Q86G/Q94H/R138H/R169H/T345S); assay: Flow cytometry / immunofluorescence staining of peptide-pulsed T2 cells with fusion protein (149 peptide); assay type: binding; details: 0.5 μg (10 μg/ml) fusion protein; T2 cells pulsed with 149 peptide
T2 construct: on the surface of the human B lymphoid cell line T2; endogenous in cells; host or cells: T2 cells pulsed with 149 peptide
Description: as §1

Substance | HLA-A2 binding of peptide (HLA-A2 surface expression on pulsed T2 cells) (HLA-A2) | conjugation between cells (conjugate formation) ([1]; 1 Ag of fusion protein, HE-labeled CTLL-2 and calcein-AM labeled T2 pulsed with 50 μg 264 peptide, 20 minutes at RT) | conjugation between a T cell and an antigen presenting cell pulsed with the correct peptide ([1]; restatement of example 11) | conjugation between cells (conjugate formation) [2] | binding of fusion protein to T2 cells displaying the 264 peptide [3] | binding of fusion protein to T2 cells displaying the 149 peptide [4]
LLGRNSFEV [264 peptide] | efficient HLA-A2 binding |  |  |  |  | 
264 scTCR-IL-2 fusion protein: soluble 264 single-chain TCR covalently linked to human IL-2 with EE peptide tag |  | 3.25% | able to mediate conjugation | 0.88% | binds specifically | not
